Series [1] has as its target T1, calpain I from porcine erythrocyte (Sus scrofa, UniProt P35750).
T1 construct: calpain I from porcine erythrocyte (Calbiochem, Cat No 208712) was used as enzyme; purchased Calbiochem 208712; host or cells: porcine erythrocyte (natural source)
T1 sequence (P35750 1-714): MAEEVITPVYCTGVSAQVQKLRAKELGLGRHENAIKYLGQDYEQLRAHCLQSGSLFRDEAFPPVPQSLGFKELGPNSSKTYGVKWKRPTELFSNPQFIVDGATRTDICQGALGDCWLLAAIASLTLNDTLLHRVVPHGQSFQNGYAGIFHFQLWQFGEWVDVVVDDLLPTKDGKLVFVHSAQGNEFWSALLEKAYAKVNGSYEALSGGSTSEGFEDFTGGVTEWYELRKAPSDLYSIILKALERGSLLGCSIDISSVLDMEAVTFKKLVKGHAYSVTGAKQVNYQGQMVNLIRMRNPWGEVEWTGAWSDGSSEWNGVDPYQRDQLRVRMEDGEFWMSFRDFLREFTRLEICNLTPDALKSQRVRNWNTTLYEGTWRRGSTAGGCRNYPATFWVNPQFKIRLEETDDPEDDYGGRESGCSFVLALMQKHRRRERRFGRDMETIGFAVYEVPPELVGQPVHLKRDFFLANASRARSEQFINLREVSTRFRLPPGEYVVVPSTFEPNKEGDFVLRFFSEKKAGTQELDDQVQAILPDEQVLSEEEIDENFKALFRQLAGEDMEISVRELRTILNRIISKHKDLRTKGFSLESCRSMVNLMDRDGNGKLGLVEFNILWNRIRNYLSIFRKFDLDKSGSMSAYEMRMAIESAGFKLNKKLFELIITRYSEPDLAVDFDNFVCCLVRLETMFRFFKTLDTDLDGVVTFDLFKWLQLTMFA
T1 sequence (P04574 1-266 partner): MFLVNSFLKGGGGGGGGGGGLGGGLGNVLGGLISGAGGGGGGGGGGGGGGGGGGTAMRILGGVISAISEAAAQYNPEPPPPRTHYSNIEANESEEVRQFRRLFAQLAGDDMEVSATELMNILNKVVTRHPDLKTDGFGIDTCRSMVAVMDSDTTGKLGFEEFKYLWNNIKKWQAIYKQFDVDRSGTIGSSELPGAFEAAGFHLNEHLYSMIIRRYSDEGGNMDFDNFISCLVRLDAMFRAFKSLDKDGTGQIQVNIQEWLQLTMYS
Kind of series: Enzyme activity test: inhibition of calpain (fluorimetric, BODIPY-FL casein substrate). The series is classed as biochemical. To be noted: 7 inhibitor concentrations between 10 nM and 200 μM. The source says:
The capacity to inhibit calpain has been quantified in terms of the value of IC50, which is defined as the concentration of inhibitor that reduces the catalytic activity of an enzyme by half. The lower the value of IC50, the more powerful the inhibitor. Inhibition results on calpain I (the most relevant from a physiological point of view) of some compounds of the present invention are shown in table 1 and in FIG. 1. Given that calpain II, also known as milli-calpain, needs a greater amount of Ca^2+ for activation, it might not possibly have such a relevant physiological role since such a concentration of Ca^2+ would cause cell death before the milli-calpain could become activated. For this reason, the inhibition tests have been performed for calpain I, though they can be extrapolated for calpain II.
The calpain inhibition capacity has been quantified in terms of the value of IC50, which is defined as the concentration of inhibitor that reduces the catalytic activity of an enzyme by half. The lower the value of IC50, the more powerful the inhibitor. Inhibition results on calpain I (the most relevant from a physiological point of view) of some compounds of the present invention are shown in table 1 and in FIG. 1.
The experiments were conducted spectrofluorimetrically using a Spectrofluor Tecan Corp 93382 spectrofluorimeter, exciting at […] and measuring at […]. Casein marked with BODIPY-FL® (Molecular Probes) was used as substrate and calpain I from porcine erythrocyte (Calbiochem, Cat No 208712) was used as enzyme. The freeze-dried substrate is component A of the protease assay kit EnzChek® green fluorescence from Molecular Probes (reference # E-6638); component B, known as 20× digestion buffer, contains 13 mL of 200 mM Tris-HCl, pH 7.8 and 2 mM sodium azide. The commercial calpain I that was used has a concentration of 1 mg in 1 mL of aqueous solution (the solution is 20 mM imidazol-HCl, pH 6.8, 1 mM EDTA, 1 mM EGTA, 5 mM β-mercaptoethanol, containing 30% glycerine).
2.5 mL of 20× digestion buffer (component B of the kit from Molecular Probes) was diluted with water to a total volume of 50 mL.
200 μg of freeze-dried substrate (component A of the kit from Molecular Probes) was dissolved in 200 μL of phosphate saline buffer. This solution was decanted into a graduated flask and diluted with the digestion solution to a total volume of 40 mL.
20 μL of commercial solution of calpain was diluted with the digestion solution to a total volume of 200 μL.
The inhibitor was dissolved in DMSO. Each inhibitor was assayed at 7 different concentrations between 10 nM and 200 μM.
All the data were obtained measuring the variation in fluorescence with time. The use of a multi-cell device and Eppendorf multi-channel pipettes permitted measurement of the variation in fluorescence in up to 64 experiments. In this way, the control experiment and the experiments with the different concentrations of inhibitor was carried out in the same set of measurements. All the experiments were conducted twice.
The control experiment was carried out mixing 180 μL of casein solution and 5 μL of calpain solution. The reaction was initiated by the addition of 10 μL of a 50 μM solution of CaCl2 in water, and the fluorescence was measured from the moment of the addition of Ca^2+ (time=0) and for 250-300 seconds (measuring during 20 kinetic cycles). The variation in fluorescence (ΔF) was represented against time (t). In order to test the effect of DMSO on enzyme activity, additional control experiments were conducted adding DMSO (in the quantities used in the experiments with the inhibitors), with the same result being obtained as in the control experiment.
180 μL of casein solution, 5 μL of calpain solution and 5 μL of inhibitor solution (of variable concentration) were mixed together. […]

By IC50 is commonly meant the point on the concentration scale where inhibition reaches its midpoint. Molecule `CC[C@H](C)[C@@H]1NC(=O)c2ccccc2/C1=C/C(=O)Nc1ccccc1-c1ccccc1NC(=O)[C@@H](N)Cc1ccccc1` [Compound 23, (S,S,S,Z)-2-amino-N-{2′-[2-(3-sec-butyl-1-oxo-2,3-dihydro-1H-isoquinolin-4-yliden)-acetylamino]-biphenyl-2-yl}-3-phenyl-propionamide] yielded an IC50 in series [1] of 7 µM.

One may read the melting point as the temperature of the solid-liquid transition. As for `CC[C@H](C)[C@@H]1NC(=O)c2ccccc2/C1=C/C(=O)OCc1ccc(COC(=O)/C=C2/c3ccccc3C(=O)N[C@H]2[C@@H](C)CC)cc1` [Compound 14], the melting point is 213 to 215 °C. This molecule yielded an IC50 in series [1] of 5 µM.

`CC[C@H](C)[C@@H]1NC(=O)c2ccccc2/C1=C/C(=O)N[C@H](C(=O)N[C@@H](Cc1ccccc1)C(=O)OC)C(C)C` [Compound 27, methyl (S,S,S,S,Z)-2-{2-[2-(3-sec-butyl-1-oxo-2,3-dihydro-1H-isoquinolin-4-yliden)-acetylamino]-3-methyl-butirylamino}-3-phenyl-propionate] yielded a melting point of 174 to 176 °C. In series [1], this molecule came in with a 50% inhibitory concentration (IC50) of 0.626 µM.

In turn, `CC[C@H](C)[C@@H]1NC(=O)c2ccccc2/C1=C/C(=O)Nc1ccccc1-c1ccccc1NC(=O)/C=C1/c2ccccc2C(=O)N[C@H]1[C@@H](C)CC` [Compound 18, (S,S,S,S,Z,Z)-2,2′-bis-[(3-sec-butyl-1-oxo-2,3-dihydro-1H-isoquinolin-4-yliden)-acetylamino]biphenyl] registered a melting point of 177 to 180 °C. For the same molecule, in series [1], the midpoint of inhibition, the IC50, lay at 0.742 µM.

For the molecule `CC[C@H](C)[C@H](NC(=O)/C=C1/c2ccccc2C(=O)N[C@H]1[C@@H](C)CC)C(=O)N[C@H](C(=O)OC)[C@@H](C)CC` [Compound 25, methyl (S,S,S,S,S,Z)-2-{2-[2-(3-sec-butyl-1-oxo-2,3-dihydro-1H-isoquinolin-4-yliden)-acetylamino]-3-methyl-pentanoylamino}-3-methyl-pentanoate], the IC50 in series [1] came to 0.447 µM.

As for `CC[C@H](C)[C@@H]1NC(=O)c2ccccc2/C1=C/C(=O)Nc1ccccc1-c1ccccc1N` [Compound 17, (S,S,Z)-N-(2′-amino-biphenyl-2-yl)-2-(3-sec-butyl-1-oxo-2,3-dihydro-1H-isoquinolin-4-yliden)-acetamide], in series [1], inhibition was half-maximal at 0.086 µM (IC50).

Regarding `CC[C@H](C)[C@H](NC(=O)/C=C1/c2ccccc2C(=S)N[C@H]1[C@@H](C)CC)C(=O)N[C@H](C(=O)OC)[C@@H](C)CC` [Compound 30, methyl (S,S,S,S,S,S,Z)-2-{2-[2-(3-sec-butyl-1-thioxo-2,3-dihydro-1H-isoquinolin-4-yliden)-acetylamino]-3-methyl-pentanoylamino}-3-methyl-pentanoate], the melting point lay within 178 to 181 °C.

In turn, `CC[C@H](C)[C@@H]1NC(=O)c2ccccc2/C1=C/C(=O)OCC#CCOC(=O)/C=C1/c2ccccc2C(=O)N[C@H]1[C@@H](C)CC` [Compound 13] returned a melting point of 85 to 87 °C. Moreover, the IC50 in series [1] is 59 µM.

As to `CC[C@H](C)[C@@H]1NC(=O)c2ccccc2/C1=C/C(=O)Nc1ccccc1-c1ccccc1NC(=O)[C@H](Cc1ccccc1)NC(=O)OCC1c2ccccc2-c2ccccc21` [Compound 20, (S,S,S,Z)-9H-fuorene-9-ylmethyl (1-{2′-[2-(3-sec-butyl-1-oxo-2,3-dihydro-1H-isoquinolin-4-yliden)-acetylamino]-biphenyl-2-ylcarbamoyl}-2-phenyl-ethyl)-carbamate], the melting point lay in the range of 108 to 110 °C. Besides, inhibition in series [1] was half-maximal at 48 µM (IC50).

`CC[C@H](C)[C@@H]1NC(=S)c2ccccc2/C1=C/C(=O)OC` [Compound 28, methyl (S,S,Z)-(3-sec-butyl-1-thioxo-2,3-dihydro-1H-isoquinolin-4-yliden)-acetate]: the melting point lay in the range of 50 to 53 °C. Also, in series [1], the IC50 came to 38 µM.

Molecule `CC[C@H](C)[C@@H]1NC(=O)c2ccccc2/C1=C/C(=O)OCc1ccccc1` [Compound 11, benzyl (S,S,Z)-(3-sec-butyl-1-oxo-2,3-dihydro-1H-isoquinolin-4-yliden)-acetate] yielded a melting point of 53 to 54 °C. In addition, 124 µM corresponded to half-maximal inhibition in series [1] (IC50).

In turn, `CC[C@H](C)[C@@H]1NC(=O)c2ccccc2/C1=C/C(=O)OC` [Compound 7, methyl (S,S,Z)-(3-sec-butyl-1-oxo-2,3-dihydro-1H-isoquinolin-4-yliden)-acetate] came in with an IC50 in series [1] of 0.025 µM.

Molecule `CC[C@H](C)[C@@H]1NC(=O)c2ccccc2/C1=C/C(=O)O` [Compound 8, (S,S,Z)-(3-sec-butyl-1-oxo-2,3-dihydro-1H-isoquinolin-4-yliden)-acetic acid] registered a melting point of 215 to 216 °C.

Consider `CCC(C)C1NC(=O)c2ccccc2/C1=C/C(=O)OC/C=C\COC(=O)/C=C1/c2ccccc2C(=O)N[C@H]1[C@@H](C)CC` (stereo partly drawn) [Compound 12], for which the melting point lay within 79 to 81 °C. In series [1], this molecule showed an IC50 of 85 µM.

Regarding `CC[C@H](C)[C@@H]1NC(=O)c2ccccc2/C1=C/C(=O)Nc1ccccc1-c1ccccc1NC(=O)[C@@H](NC(=O)OCC1c2ccccc2-c2ccccc21)C(C)C` [Compound 19, (S,S,S,Z)-9H-fuorene-9-ylmethyl (1-{2′-[2-(3-sec-butyl-1-oxo-2,3-dihydro-1H-isoquinolin-4-yliden)-acetylamino]-biphenyl-2-ylcarbamoyl}-2-methyl-propyl)-carbamate], the melting point was in the range of 133 to 135 °C. The molecule also registered an IC50 in series [1] of 100 µM.

Turning to `CCCCOC(=O)/C=C1/c2ccccc2C(=O)N[C@H]1[C@@H](C)CC` [Compound 10, 1-butyl (S,S,Z)-(3-sec-butyl-1-oxo-2,3-dihydro-1H-isoquinolin-4-yliden)-acetate], the melting point lay within 110 to 112 °C.

The molecule `CC[C@H](C)[C@@H]1NC(=S)c2ccccc2/C1=C/C(=O)O` [Compound 29, (S,S,Z)-(3-sec-butyl-1-thioxo-2,3-dihydro-1H-isoquinolin-4-yliden)-acetic acid] yielded a melting point of 193 to 196 °C.

In the case of `CC[C@H](C)[C@H](N)C(=O)Nc1ccccc1-c1ccccc1NC(=O)/C=C1/c2ccccc2C(=O)N[C@H]1[C@@H](C)CC` [Compound 24, (S,S,S,S,Z)-2-amino-N-{2′-[2-(3-sec-butyl-1-oxo-2,3-dihydro-1H-isoquinolin-4-yliden)-acetylamino]-biphenyl-2-yl}-3-methyl-pentanamide], the IC50 in series [1] amounted to 50 µM.
